# Measurements reported in US20100028319A1, “COMPOSITION FOR PREVENTION OR TREATMENT OF DIABETES” (KANEKA CORPORATION, priority 2007, published 2010).
# What was measured:
# [1] = test system: HIT-T15 cells; assay: Effects on ATP production (intracellular ATP level, ATPLite) in HIT-T15 cells; assay type: cell-based; conditions: 24 h + 24 h cultivation
# Method: Ham'F12 medium (GIBCO) containing 200 units of penicillin (GIBCO), […] streptomycin (GIBCO), and 10% fetal bovine serum (GIBCO) is normally used as a growth medium for cultivating HIT-T15 cells.
# A growth medium containing a fetal bovine serum at a concentration of 0.5% was placed in each well of a 96-well microplate, and HIT-T15 cells were seeded in the wells at a density of 1×10^4 cells/well. Next day, the growth medium of each well was replaced with a growth medium containing 0.5% fetal bovine serum, in which reduced coenzyme A was further added to a final concentration of 6.25, 12.5, 25, 50 or 100 μg/ml. Twenty-four hours later, the medium of each well was removed and replaced with a growth medium (containing 10% fetal bovine serum) in which reduced coenzyme A was added at the same concentration as mentioned above, and cultivation was continued for another 24 hours. After washing three times with PBS, the intracellular ATP level was measured using ATPLite (PerkinElmer).
# A growth medium containing a fetal bovine serum at a concentration of 0.5% was placed in each well of a 96-well microplate, and the cells were seeded in the wells at a density of 1×10^4 cells/well. Next day, the growth medium of each well was replaced with a growth medium containing 0.5% fetal bovine serum, in which reduced coenzyme A or three kinds of coenzyme A precursors (pantothenic aid, pantethine, cystein) or oxidized coenzyme A was added. The coenzyme A precursors and the oxidized coenzyme A were added at the same molar concentrations as that of the reduced coenzyme A. Twenty-four hours later, the medium of each well was removed and replaced with a growth medium (containing 10% fetal bovine serum) in which reduced coenzyme A, the coenzyme A precursor, or oxidized coenzyme A was added at the same concentration as mentioned above, and cultivation was continued for another 24 hours. After washing three times with PBS, the intracellular ATP level was measured using ATPLite (PerkinElmer).
# [2] = test system: HIT-T15 cells; assay: Glucose-responsive insulin secretion in HIT-T15 cells (ELISA); assay type: cell-based; conditions: 50 μg/ml reduced coenzyme A; 20 mM glucose load; supernatant collected at intervals of 30 minutes; FIG. 3
# Method: HIT-T15 cells were seeded in the wells of a 96-well plate at a density of 50,000 cells/100 μl medium/well. An RPMI 1640 medium (GIBCO) containing 1% fetal bovine serum and 6 mM glucose was used at this time. Twenty-four hours later, the medium of each well was replaced with an RPMI 1640 medium (containing 1% fetal bovine serum and 6 mM glucose) in which reduced coenzyme A was added to a final concentration of 50 μg/ml. Another 24 hours later, the medium of each well was replaced with an RPMI 1640 medium (containing 10% fetal bovine serum and 6 mM glucose) in which reduced coenzyme A was added to a final concentration of 50 μg/ml. Yet another 24 hours later, the wells were washed with Krebs-Ringer buffer containing 10 mM of HEPES (KRB-HEPES), and further added with 100 μl of KRB-HEPES, followed by culturing for one hour. Next, after removal of the KRB-HEPES, the wells were washed with the same buffer. To the wells was added 100 μl of KRB-HEPES containing 20 mM of glucose, and the supernatant liquid was collected at intervals of 30 minutes for storing frozen. At a later date, the insulin amount in the supernatant liquid samples was assayed using ELISA (Lebis).
# [3] = same molar concentrations, FIG. 2
smiles,measurement,setting,value
CC(C)(COP(=O)(O)OP(=O)(O)OC[C@H]1O[C@@H](n2cnc3c(N)ncnc32)[C@H](O)[C@@H]1OP(=O)(O)O)[C@@H](O)C(=O)NCCC(=O)NCCS [reduced coenzyme A],intracellular ATP level in HIT-T15 cells,"[1]; reduced coenzyme A added at 6.25, 12.5, 25, 50 or 100 μg/ml, FIG. 1",significantly increased
same,ATP production in comparison to addition of oxidized coenzyme A,[1]; [3],promoted ATP production significantly in comparison to addition of oxidized coenzyme A
same,"ATP production in comparison to additions of the precursors (pantothenic acid, pantethine, cystein) and a mixture of the three precursors",[1]; [3],promoted ATP production significantly in comparison to additions of the precursors
same,glucose-responsive insulin secretion in HIT-T15 cells,[2],significantly promoted
